The nature of the assay: Cytotoxicity against human OVCAR3 cells after 48 hrs by sulforhodamine B assay. The assay is classed as functional. Conditions: OVCAR-3, 48 h. (Sulforhodamine B stains cellular protein and so reports cell mass.)

Bounds are passed on as bounds.

As to `O=C(Nc1nonc1-c1ccc(Cl)cc1)c1ccc(C(F)(F)F)cc1`, the GI50 (read-out: GI50) was 2.18 µM and the GI50 (read-out: pGI50 (converted)) is 2.19 µM. Besides, the CC50 is, setting by setting: (read-out: LC50 (the source's name)) above 100 µM; (read-out: pLC50 (the source's name) (converted)) above 100 µM. Further, the TGI was 7.9 µM (read-out: TGI) and 7.94 µM (read-out: pTGI (converted)).

For the origin of these results see ChEMBL document CHEMBL3217756, “Biological and computational evaluation of an oxadiazole derivative (MD77) as a new lead for direct STAT3 inhibitors” (Medchemcomm, 2012).
